The test addresses T1, hA3AR (Homo sapiens, UniProt P0DMS8).
T1 construct: expressed in transfected cells; host or cells: CHO cells (CHOhA3AR), gift of Prof; K.N. Klotz, University of Würzburg; used as membrane fractions or live cells
T1 sequence (P0DMS8 1-318): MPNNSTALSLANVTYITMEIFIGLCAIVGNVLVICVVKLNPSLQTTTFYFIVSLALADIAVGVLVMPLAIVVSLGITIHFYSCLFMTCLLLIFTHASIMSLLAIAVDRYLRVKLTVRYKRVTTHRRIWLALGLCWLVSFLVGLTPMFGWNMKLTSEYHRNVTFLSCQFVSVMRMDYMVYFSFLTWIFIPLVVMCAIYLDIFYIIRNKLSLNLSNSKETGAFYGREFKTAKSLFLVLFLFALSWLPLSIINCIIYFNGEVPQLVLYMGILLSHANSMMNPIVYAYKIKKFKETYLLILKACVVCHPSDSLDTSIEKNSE
As to the kind of experiment: SDS-PAGE labeling in CHO membrane fractions, click to Cy5-N3. The class given is binding. To be noted: 50 nM probe, compared with 5 and 13. The protocol:
Membrane fractions were prepared as mentioned above and diluted to a concentration of 1 μg/μL. 18 μL of membrane fractions from either CHOhA3AR or CHO-K1 cells were taken. 1 μL of competing ligand (PSB-11, unless noted otherwise) was added (final concentration: 1 μM in 0.05% DMSO in assay buffer), and the samples were shaken for 30 min at rt. 1 μL of affinity-based probe was then added (final concentration: 50 nM in 0.05% DMSO in assay buffer, unless noted otherwise), and the samples were shaken for 1 h at rt. Deglycosylation was initiated by addition of 0.5 μL of PNGaseF (5 U), 0.5 μL of MilliQ water for the control samples, and the samples were shaken for 1 h at rt. The click mix was freshly prepared by adding together 5 parts 100 mM CuSO4 in MilliQ, 3 parts 1 M sodium ascorbate (NaAsc) in MilliQ, 1 part 100 mM Tris(3-hydroxypropyltriazolylmethyl)amine (THPTA) in MilliQ, and 1 part 100 μM Cy5-N3 in DMSO. […] In-gel fluorescence was measured on a Bio-Rad Universal Hood III using Cy3 (605/50 filter) or Cy5 (695/55 filter) settings. […]
Gel images were analyzed using Image Lab software version 6.0.1 (Bio-Rad). Quantification was done in the following manner: the area under the curve (AUC) of the bands was selected using the ‘Lane Profile’ tab and the adjusted volumes were taken. […]

SMILES strings stand for the structures.

Regarding `C#CCOc1ccn2c(c1)nc1c2c(=O)n(CCC)c(=O)n1CCCNC(=O)c1ccc(S(=O)(=O)F)cc1` [compound 9, 4-((3-(2,4-Dioxo-8-(prop-2-yn-1-yloxy)-3-propyl-3,4-dihydropyrido[2,1-f]purin-1(2H)-yl)propyl)carbamoyl)benzenesulfonyl fluoride], the “off-target labeling on gel” value is “fewer other proteins labeled”.

These data come from paper PMC10461224, “Development of an Affinity-Based Probe to Profile Endogenous Human Adenosine A3 Receptor Expression” (Journal of Medicinal Chemistry, 2023).
